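How tested: cells in 96-well plates exposed to compound for 48 hours at five concentrations. TGI denotes the concentration required for complete inhibition of growth.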
How the values were obtained:
Assay in all cases: NCI-60 cell line screen, 48 h
SNB-19 CNS = system: SNB-19 CNS
UO-31 renal = system: UO-31 renal
IGROV1 ovarian = system: IGROV1 ovarian
LOX IMVI melanoma = system: LOX IMVI melanoma
OVCAR-5 ovarian = system: OVCAR-5 ovarian
ACHN renal = system: ACHN renal
SK-MEL-28 melanoma = system: SK-MEL-28 melanoma
HCT-15 colon = system: HCT-15 colon
OVCAR-3 ovarian = system: OVCAR-3 ovarian
PC-3 prostate = system: PC-3 prostate
NCI-H23 lung = system: NCI-H23 lung
DU-145 prostate = system: DU-145 prostate
RPMI-8226 leukemia = system: RPMI-8226 leukemia
SF-295 CNS = system: SF-295 CNS
OVCAR-8 ovarian = system: OVCAR-8 ovarian
UACC-257 melanoma = system: UACC-257 melanoma
K-562 leukemia = system: K-562 leukemia
A498 renal = system: A498 renal
MALME-3M melanoma = system: MALME-3M melanoma
HL-60(TB) leukemia = system: HL-60(TB) leukemia
U251 CNS = system: U251 CNS
HS 578T breast = system: HS 578T breast
SW-620 colon = system: SW-620 colon
MOLT-4 leukemia = system: MOLT-4 leukemia
SK-MEL-2 melanoma = system: SK-MEL-2 melanoma
CAKI-1 renal = system: CAKI-1 renal
EKVX NSCLC = system: EKVX NSCLC
SF-539 CNS = system: SF-539 CNS
TK-10 renal = system: TK-10 renal
A549 NSCLC = system: A549 NSCLC
BT-549 breast = system: BT-549 breast
SK-MEL-5 melanoma = system: SK-MEL-5 melanoma
HCT-116 colon = system: HCT-116 colon
NCI/ADR-RES ovarian = system: NCI/ADR-RES ovarian
SN12C renal = system: SN12C renal
NCI-H460 lung = system: NCI-H460 lung
RXF 393 renal = system: RXF 393 renal
HT29 colon = system: HT29 colon
MDA-MB-231 breast = system: MDA-MB-231 breast
MDA-MB-435 = system: MDA-MB-435
KM12 colon = system: KM12 colon
MDA-N = system: MDA-N
786-0 renal = system: 786-0 renal
SK-OV-3 ovarian = system: SK-OV-3 ovarian
UACC-62 melanoma = system: UACC-62 melanoma
COLO 205 colon = system: COLO 205 colon
SNB-75 CNS = system: SNB-75 CNS
SF-268 CNS = system: SF-268 CNS
NCI-H522 lung = system: NCI-H522 lung
M14 melanoma = system: M14 melanoma
NCI-H226 lung = system: NCI-H226 lung
CCRF-CEM leukemia = system: CCRF-CEM leukemia
OVCAR-4 ovarian = system: OVCAR-4 ovarian
HCC-2998 colon = system: HCC-2998 colon
MCF7 breast = system: MCF7 breast
HOP-92 NSCLC = system: HOP-92 NSCLC
HOP-62 NSCLC = system: HOP-62 NSCLC
SR leukemia = system: SR leukemia

O=Cc1c(C(=O)O)[nH]c(=O)[nH]c1=O
TGI (SNB-19 CNS): > 100 µM | TGI (UO-31 renal): > 100 µM | TGI (IGROV1 ovarian): > 100 µM | TGI (LOX IMVI melanoma): > 100 µM | TGI (OVCAR-5 ovarian): > 100 µM | TGI (ACHN renal): > 100 µM | TGI (SK-MEL-28 melanoma): > 100 µM | TGI (HCT-15 colon): > 100 µM | TGI (OVCAR-3 ovarian): > 100 µM | TGI (PC-3 prostate): > 100 µM | TGI (NCI-H23 lung): > 100 µM | TGI (DU-145 prostate): > 100 µM | TGI (RPMI-8226 leukemia): > 100 µM | TGI (SF-295 CNS): > 100 µM | TGI (OVCAR-8 ovarian): > 100 µM | TGI (UACC-257 melanoma): > 100 µM | TGI (K-562 leukemia): > 100 µM | TGI (A498 renal): > 100 µM | TGI (MALME-3M melanoma): > 100 µM | TGI (HL-60(TB) leukemia): > 100 µM | TGI (U251 CNS): > 100 µM | TGI (HS 578T breast): > 100 µM | TGI (SW-620 colon): > 100 µM | TGI (MOLT-4 leukemia): > 100 µM | TGI (SK-MEL-2 melanoma): > 100 µM | TGI (CAKI-1 renal): > 100 µM | TGI (EKVX NSCLC): > 100 µM | TGI (SF-539 CNS): > 100 µM | TGI (TK-10 renal): > 100 µM | TGI (A549 NSCLC): > 100 µM | TGI (BT-549 breast): > 100 µM | TGI (SK-MEL-5 melanoma): > 100 µM | TGI (HCT-116 colon): > 100 µM | TGI (NCI/ADR-RES ovarian): > 100 µM | TGI (SN12C renal): > 100 µM | TGI (NCI-H460 lung): > 100 µM | TGI (RXF 393 renal): > 100 µM | TGI (HT29 colon): > 100 µM | TGI (MDA-MB-231 breast): > 100 µM | TGI (MDA-MB-435): > 100 µM | TGI (KM12 colon): > 100 µM | TGI (MDA-N): > 100 µM | TGI (786-0 renal): > 100 µM | TGI (SK-OV-3 ovarian): > 100 µM | TGI (UACC-62 melanoma): > 100 µM | TGI (COLO 205 colon): > 100 µM | TGI (SNB-75 CNS): > 100 µM | TGI (SF-268 CNS): > 100 µM | TGI (NCI-H522 lung): > 100 µM | TGI (M14 melanoma): > 100 µM | TGI (NCI-H226 lung): > 100 µM | TGI (CCRF-CEM leukemia): > 100 µM

CCOC(=O)C(=Cc1[nH]c2ccccc2c1-c1c[nH]c2ccccc12)C(=O)OCC
TGI (SNB-19 CNS): 28.3 µM | TGI (UO-31 renal): 26.3 µM | TGI (IGROV1 ovarian): 24.8 µM | TGI (LOX IMVI melanoma): 26.7 µM | TGI (OVCAR-5 ovarian): 30.3 µM | TGI (ACHN renal): 24.5 µM | TGI (HCT-15 colon): 43.9 µM | TGI (OVCAR-3 ovarian): 21.2 µM | TGI (PC-3 prostate): 25 µM | TGI (NCI-H23 lung): 35.4 µM | TGI (DU-145 prostate): 27.1 µM | TGI (RPMI-8226 leukemia): 23.8 µM | TGI (OVCAR-4 ovarian): 20.3 µM | TGI (SF-295 CNS): 25.3 µM | TGI (HCC-2998 colon): 25 µM | TGI (OVCAR-8 ovarian): 25.8 µM | TGI (UACC-257 melanoma): 23.8 µM | TGI (K-562 leukemia): 26.6 µM | TGI (A498 renal): 28.6 µM | TGI (MALME-3M melanoma): 34.4 µM | TGI (MCF7 breast): 22.2 µM | TGI (U251 CNS): 24.3 µM | TGI (HS 578T breast): 91.3 µM | TGI (MOLT-4 leukemia): > 100 µM | TGI (SK-MEL-2 melanoma): 29.6 µM | TGI (CAKI-1 renal): 30.8 µM | TGI (EKVX NSCLC): 31.8 µM | TGI (SF-539 CNS): 39.1 µM | TGI (TK-10 renal): 26.1 µM | TGI (A549 NSCLC): 35.9 µM | TGI (BT-549 breast): 33.1 µM | TGI (SK-MEL-5 melanoma): 29.2 µM | TGI (HOP-92 NSCLC): 23.5 µM | TGI (HCT-116 colon): 22.8 µM | TGI (NCI/ADR-RES ovarian): 47.5 µM | TGI (SN12C renal): 29.4 µM | TGI (NCI-H460 lung): 29.8 µM | TGI (RXF 393 renal): 23.3 µM | TGI (HT29 colon): 17.5 µM | TGI (MDA-MB-231 breast): 39.3 µM | TGI (MDA-MB-435): 18.3 µM | TGI (KM12 colon): 18 µM | TGI (MDA-N): 26.5 µM | TGI (786-0 renal): 7.15 µM | TGI (SK-OV-3 ovarian): 49 µM | TGI (HOP-62 NSCLC): 28.1 µM | TGI (SR leukemia): 32.7 µM | TGI (UACC-62 melanoma): 19.4 µM | TGI (COLO 205 colon): 40.8 µM | TGI (SNB-75 CNS): 26.4 µM | TGI (SF-268 CNS): 30.5 µM | TGI (NCI-H522 lung): > 100 µM | TGI (M14 melanoma): 21.7 µM | TGI (NCI-H226 lung): 37.5 µM
